One series concerns the target T1, human IL-17A (hIL-17A) (Homo sapiens, UniProt Q16552).
T1 construct: purchased Sino Biological Inc. 12047-H07B
T1 sequence (Q16552 24-155): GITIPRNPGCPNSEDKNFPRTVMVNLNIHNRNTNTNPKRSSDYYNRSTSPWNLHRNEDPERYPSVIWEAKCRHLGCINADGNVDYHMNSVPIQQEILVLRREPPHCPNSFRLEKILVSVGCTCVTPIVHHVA
The experiment in a line: IL-17A enzyme-linked immunosorbent assay (competitive ELISA, receptor-ligand binding). Summed up: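 Plates were coated with 0.2 μg/ml hIL-17A and blocked with milk. Compounds were preincubated on the plate for 10 min at 25° C, then 16 nM stock IL-17R was added for 30 min. Bound receptor was detected with anti-Fc HRP and TMB at 450 nm.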
For orientation: In an ELISA, binding on a coated surface is turned into a signal by an enzyme label.

Another series addresses T2, hIL-17A (Homo sapiens, UniProt Q16552).
T2 construct: purchased R&D 317-ILB
T2 sequence (Q16552 20-155 limits assumed): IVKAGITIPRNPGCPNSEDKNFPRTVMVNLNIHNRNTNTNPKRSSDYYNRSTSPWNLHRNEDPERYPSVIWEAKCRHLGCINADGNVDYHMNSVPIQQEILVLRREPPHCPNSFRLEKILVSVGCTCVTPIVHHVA
The experiment in a line: Inhibition of hIL-17A-induced chemokine GROα/CXCL1 production in HT-29 cell. It is filed as cell-based. The method, boiled down:
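HT-29 cells stimulated 48 h at 37 °C with 30 ng/mL hIL-17A pre-incubated 1 h with graded compound concentrations; anti-IL-17A antibody (0.3 μg/mL) as positive control. Supernatant GROα measured by ELISA.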

In a further series the target is T3, hIL-17A protein (Homo sapiens, UniProt Q16552).
T3 sequence (Q16552 24-155): T1 sequence (Q16552 24-155)
The experiment in a line: Binding to hIL-17A protein through surface plasmon resonance (SPR, Biacore 8K). Particulars: for ka / kd: SPR; for binding to hIL-17A (SPR, in words): compared with the positive compound. The procedure: The binding of the compounds provided herein to the hIL-17A protein was tested using SPR, and analyzed using a Biacore 8K system. A positive compound was the compound of Example 32 in WO2020/127685A1.
A general note: SPR reads the build-up and loss of mass on a sensor chip optically.

Series [1] is described as follows: Drug metabolism properties (pharmacokinetics) in mice. Type of series: in vivo. Particulars: mouse, plasma, intravenous injection/oral gavage, read-out: Oral bioavailability F % (mice). The protocol: In order to investigate the drug metabolism property of the compounds provided herein in mice, a compound solution was given to 6 mice by intravenous injection/oral gavage at corresponding doses. Mice were divided into groups A and B for each administration, where anticoagulated whole blood was collected from group A at 5 min, 30 min, 2 h and 8 h after drug administration; and anticoagulated whole blood was collected from group B at 15 min, 1 h, 4 h and 24 h after drug administration. plasma was separated.
(§1) Plasma concentrations of compounds were determined by standard curve calibration method using LC-MS. Using Winnolin 5.2 software, plasma concentration-time data were fitted to pharmacokinetic parameters, including elimination half-life (T1/2), area under the plasma pharmacokinetic curve at the sampling endpoint (AUClast), peak concentration (Cmax), apparent volume of distribution (Vz), total clearance ration (Cl), and absolute bioavailability (F %).

Series [2] is described as follows: Drug metabolism properties (pharmacokinetics) in rats. Type of series: in vivo. The conditions noted are these: plasma; rat, intravenous injection/oral gavage; read-out: Oral bioavailability F % (rat). The protocol: In order to investigate the drug metabolism property of the compounds provided herein in rats, a compound solution was given to 3 rats by intravenous injection/oral gavage at corresponding doses. After 5 min, 15 min, 30 min, 1 h, 2 h, 4 h, 8 h and 24 h administration, anticoagulated whole blood was collected from rats, and plasma was separated.
as §1

Series [3] can be described thus: Drug metabolism properties (pharmacokinetics) in dogs. Type of series: in vivo. The conditions noted are these: both sexes, plasma; dog, intravenous injection/oral gavage; read-out: Oral bioavailability F % (dog). The protocol:
In order to investigate the drug metabolism property of the compounds provided herein in dogs, a compound solution was given to 2 groups of dogs (4 dogs (2 males+2 females) for each group) by intravenous injection/oral gavage at corresponding doses. After […], 15 min, 30 min, 1 h, 2 h, 4 h, 8 h, 12 h, 24 h and 36 h administration, anticoagulated whole blood was collected from dogs, and plasma was separated.
as §1

Another series addresses T4, hIL-17A/RA (Homo sapiens, UniProt Q16552).
T4 construct: biotin label (inferred from streptavidin-HRP detection)
T4 sequence (Q16552 24-155): T1 sequence (Q16552 24-155)
The experiment in a line: Reversibility of binding by jump dilution ELISA (hIL-17A/hIL-17RA). The protocol:
The reversibility of the binding of the compounds in Examples to hIL-17A and the binding time of the compound-protein complex were qualitatively and quantitatively analyzed by jump dilution assay. The positive compound was the compound of Example 32 in WO2020/127685 A1. 7 nM hIL-17RA were inoculated to a 96-well plate (100 μL for per well), and incubated at 37° C. for 30 min. A blank group was 100 μL of coating buffer solution. After […] incubation at 4° C., the 96-well plate was washed with PBST (0.05% Tween-20) 4 times, 200 μL for per well each time. The 96-well plate was added with 200 μL 3% BSA (PBST diluted) and closed on a shaker at 37° C. for 30 min. […] The configured hIL7A was mixed with an equal volume of compound in a 200 ul centrifuge tube to obtain a protein-compound mixture. The protein-compound mixture was subjected to pre-incubation at room temperature for 15 min. The protein-compound mixture, positive control group and negative control group were diluted 200×. After closing, the 96-well plate was washed 4 times, and added with dilution 100 μL for per well to incubate at 25° C. for 28, 24, 5, 2 and 0 h. After washing the plate 4 times, 100 μL of Streptavidin-HRP coupled antibody diluted with 1% BSA was added and then incubated for 30 min on a shaker at 25° C. After washing the plate 4 times, 100 μL of TMB substrate solution were added, and incubated away from light for 5-15 min at 25° C. (depending on the color of the reaction). After addition of 20% HCl, an absorbance was measure by a microplate reader at 450 nm.

A value given as a limit tells only on which side of the number the result lay.

For the molecule `Cc1nonc1C(=O)N[C@H](C(=O)Nc1ccc(-c2c(C)n[nH]c2C)cc1)C1c2ccc(F)cc2OCC12CC2` (stereo partly shown) [Compound 24], the IC50 – broadly, the concentration that inhibits the measured activity by half – on human IL-17A (hIL-17A) is 53 nM. Further, at hIL-17A, it took 30 nM to reach half-maximal inhibition (IC50). At hIL-17A protein, the Kd (in general, the concentration at which binding is half-saturated) is 0.00388 nM; the ka came out at 12400 M⁻¹ s⁻¹; the kd amounted to 4.8e-08 s⁻¹; the “binding to hIL-17A (SPR, in words)” value was “strong binding to hIL-17A and were much stronger than the positive compound”. In series [1], the bioavailability (in general, the share of a dose that reaches the circulation, judged against a reference dose that is usually intravenous) was determined as 51%. In addition, the bioavailability in series [2] was 56%. Further, the bioavailability in series [3] is 27%.

On to `CCc1nonc1C(=O)N[C@H](C(=O)Nc1ccc(-c2c(C)n[nH]c2C)cc1)C1c2cc(F)c(F)cc2OCC12CC2` (stereo partly shown) [Compound 43], for which the IC50 on human IL-17A (hIL-17A) is 55 nM. Moreover, the half-maximal inhibitory concentration (IC50) against hIL-17A was determined as 57 nM. Also, at hIL-17A protein, the Kd is 0.00132 nM; the ka was 14200 M⁻¹ s⁻¹; the kd was 1.87e-08 s⁻¹; the “binding to hIL-17A (SPR, in words)” value is “strong binding to hIL-17A and were much stronger than the positive compound”. For the same molecule, the “maintenance of binding to and inhibition of hIL-17A protein (jump dilution, in words)” value at hIL-17A/RA (compared with the positive compound) is “able to maintain binding to and inhibit the activity of hIL-17A protein for a long time”. Moreover, the “50% enzyme activity retention time, Value on hIL-17A/RA (5X cpds)” value at hIL-17A/RA (jump dilution, 5X cpds) is listed as over 28 h. At hIL-17A/RA (jump dilution, 10X cpds), the “50% enzyme activity retention time, Value on hIL-17A/RA (10X cpds)” value is listed as over 28 h. In series [1], the bioavailability came out at 49%. The bioavailability in series [2] is 36%. Further, the bioavailability in series [3] worked out at 18%.

On to `Cc1n[nH]c(C)c1-c1ccc(NC(=O)[C@@H](NC(=O)c2nonc2C2CC2)C2c3cc(F)c(F)cc3OCC23CC3)cc1` (stereo partly shown) [Compound 49], for which the IC50 on human IL-17A (hIL-17A) and against hIL-17A was 146 nM in each case. Further, the results for the bioavailability in series [1], in series [2] and in series [3] were 37%, 17% and 20%, respectively.

On to `CCc1nonc1C(=O)N[C@H](C(=O)Nc1ccc(-c2c(C)n[nH]c2C)cc1)C1c2ccc(F)c(F)c2OCC12CC2` (stereo partly shown) [Compound 58], for which the results for the IC50 at human IL-17A (hIL-17A) and against hIL-17A were 54 nM and 109 nM, respectively. Besides, the figures for the bioavailability in series [1], in series [2] and in series [3] were 26%, 28% and 16%, respectively.

These data come from patent publication US20230227437A1, “IMMUNOMODULATOR” (priority 2020, published 2023).
